Measured values published in US20060029654A1, “Analgesic patch for sports injury rehabilitation medicine and method to alleviate pain” (priority 2004, published 2006).

Test system: pain in the right shoulder and right lateral thigh (right rotator cuff tendonitis and right lateral fasciaitis)
Details: prior treatment history; injection into the pain trigger zone

## C[C@]12CCC(=O)C=C1CC[C@@H]1[C@@H]2C(=O)C[C@@]2(C)[C@H]1CC[C@]2(O)C(=O)CO [cortisone]
  duration of temporary pain relief: 4 to 6 weeks
